Where two headings read alike, the source gives them in different places. Marks after values point to notes of the source that are not given here.
Experiments:
Format in all cases: in vivo, Balb/c-nu/nu mice
[1] = system: animal models xenografted with HT-29 colon cancer cell line; assay: Swimming test (forced motor activity), test example 1; conditions: HT-29 xenografted mice, 100 mg/kg oral, every day for 4 weeks
Description: (§1) 6-wk-old Balb/c-nu/nu female mice weighing 20±2 g were obtained from Orient Inc., and housed in animal rooms under a temperature of 23±1° C., relative humidity of 55±15%, and 12-hour light/dark illumination cycle. […] After acclamation for 1 week, 100 μl of HT-29 cells (5×10^6 cells/mouse) were subcutaneously injected into the flank of the Balb/c nu/nu mouse, and the mice were observed by the naked eyes. The mice were randomized into groups when the tumor size reached 150 mm^3, and then drug administration was initiated. Voluntary motor activity (running wheel activity) and forced motor activity (swimming test) were measured after the administration of anticancer drug and drugs was completed, and the amount of glycogen synthesized in the muscle was assayed through an ELISA kit after the tissue taken from the femoral region on the final date of autopsy was homogenized. Running wheel activity (Running distance=meter/10 min)
A transparent temperature-constant water bath (500 mm×500 mm×400 mm), which maintained the designated temperature and water level, was filled with warm water (23±1° C.), and then the animals were subjected to forced swimming (FS). The swimming time immediately after total exhaustion was recorded. […]

[2] = system: animal models xenografted with HT-29 colon cancer cell line; assay: Glycogen synthesized in femoral muscle (ELISA kit) under radiation treatment, test example 3
Description: as §1
(§2) All the examples and comparative examples were diluted in phosphate buffered saline (PBS) according to the dosage, and compulsorily administered to the animals using needle for oral administration (Sonde). The dosage was diluted in PBS to 100 mg/kg of body weight, and the dosage was calculated such that 100 μl/20 g was administered depending on the weight measured on the day of administration. Test materials were administered at the same time once per day, at 10 AM, for 4 weeks, for the examples and comparative examples.
Evaluation was conducted in the same conditions as in test example 1, except that all the examples and comparative examples were compared in the conditions of radiation treatment. The radiation treatment was conducted at 10 Gy three times per week.

[3] = system: animal models xenografted with HT-29 colon cancer cell line; assay: Running wheel activity (voluntary motor activity), test example 1; conditions: HT-29 xenografted mice, 100 mg/kg oral, every day for 4 weeks
Description: as §1
The voluntary motor activity was measured as the parameter of cancer-related fatigue (CRF) through running wheel activity. The number of wheels ran for a total of 10 min on 300Ø wheel was counted, and running distance was calculated. *Running distance=circumference (30 cm×3.14)×number of wheels/10 min […]

[4] = system: animal models xenografted with HT-29 colon cancer cell line
Description: as §1, §2
Evaluation was conducted in the same conditions as in test example 1, except that all the examples and comparative examples were compared in the conditions of treatment with an anticancer drug. The treatment with 5-FU as an anticancer drug was conducted at 30 mg/kg three times per week.

| SMILES | Total swimming time ([1]; forced swimming to exhaustion, water 23±1° C.) [s] | Increase (%) in swimming time, compared with control ([1]; vs xenograft control) [%] | Mean Muscle Glycogen ([2]; HT-29 xenografted mice, with radio therapy 10 Gy 3 days per week, oral daily for 4 weeks, femoral muscle) [mg/g] | amount of glycogen synthesis compared with control group treated with radiation (in words) ([2]; combined with radiation treatment for 4 weeks) | Increase (%) in glycogen synthesis, compared with control ([2]; with radio therapy 10 Gy 3 days per week, oral daily for 4 weeks, vs radio therapy control) [%] | Running distance for 10 min (meter/10 min) [3] | Incerase (%) in running distance for 10 min, compared with control ([3]; vs xenograft control) [%] | Mean Muscle Glycogen ([4]; HT-29 xenografted mice, co-administered with 5-FU 30 mg/kg i.p. 3 days per week, 100 mg/kg oral daily for 4 weeks, femoral muscle) [mg/g] | Increase (%) in glycogen synthesis, compared with control ([4]; co-administered with 5-FU 30 mg/kg i.p. 3 days per week, 100 mg/kg oral daily for 4 weeks, vs 5-FU control) [%] | amount of glycogen synthesis compared with control group administered with the anticancer drug (in words) ([4]; co-administered with 5-FU for 4 weeks) | Mean Muscle Glycogen (mg/g), 5-FU control ([4]; mouse, in vivo) [mg/g] | reduction of amount of glycogen synthesis compared with the normal groups ([4]; mouse, in vivo) [%] |
| --- | --- | --- | --- | --- | --- | --- | --- | --- | --- | --- | --- | --- |
| NC(=O)C[S+]([O-])C(c1ccccc1)c1ccccc1 (stereo not drawn) [Comparative example 12, Modafinil] | 731.8 ± 60.1 | 63.5 | 3.9 ± 0.2 | did not show any great change | 7.9 | 80.1 ± 1.9** meter/10 min | 52.6 | 4.3 ± 0.5 | 18.4 | did not show any great change |  |  |
| O=c1[nH]cc(F)c(=O)[nH]1 [Example 5-FU, 5-fluorouracil] |  |  |  |  |  |  |  |  |  |  | 3.6 ± 0.34 | 51.4 |
